A value given as a limit tells only on which side of the number the result lay.

As for `OC1(c2cc(F)cc(CC#COC#CCc3cc(F)cc(C4(O)CCOCC4)c3)c2)CCOCC1`, the melting point was 120 to 122 °C.

Molecule `O=C(OCc1ccncc1)c1ccc2[nH]c(=O)n(Cc3ccc4c(c3)OCO4)c(=O)c2c1` had a melting point of 204 °C.

The molecule `Nc1ccc(Cn2ncnn2)cc1` showed a melting point of 86 to 87 °C.

Regarding `CC(=O)c1cc2cc(Br)ccc2s1`, the melting point was 120 to 121 °C.

`CCCCCN1C(=O)C(NC(=O)OC(C)(C)C)c2ccccc21` (centres undefined): the melting point fell in the range of 145 to 147 °C.

On to `COc1cccc(Nc2cccc3c2C(=O)N(C2CCC(=O)NC2=O)C3=O)c1` (centres undefined), for which the melting point is 210 to 212 °C.

For the molecule `N#Cc1ccc(Oc2cc3c(cc2Cl)C=C(C(=O)O)C(C(F)(F)F)O3)cc1` (centres undefined), the melting point lay in the range of 212 to 216 °C.

For `CCn1cnc2c(Nc3cccc([N+](=O)[O-])c3)nc(N[C@H]3CC[C@H](O)CC3)nc21`, the melting point was 237 to 238 °C.

`CC(O)C(O)Cc1cc(C(N)=O)ccc1C(N)=O` (centres undefined): the melting point was 130 °C.

In the case of `COc1ccc(/C=C/C=C/C(=O)Oc2ccc([N+](=O)[O-])cc2)cc1`, the melting point lay within 176 to 177 °C.

On to `CC(=O)Nc1c(C(=O)c2cccc(C)c2)[nH]c2cc(Cl)ccc12`, for which the melting point was 96 to 100 °C.

The molecule `C[C@H](Nc1ncnc2[nH]cnc12)c1oc2ccccc2c(=O)c1-c1cccc(F)c1` came in with a melting point of 135 to 138 °C.

`COCCOc1cc2ncc(C#N)c(O)c2cc1OCc1ccccc1` returned a melting point of more than 250 °C.

Turning to `O=C(O)CCc1sc(-c2ccccc2)nc1-c1ccc(Cl)cc1`, the melting point is 142 to 143 °C.

The molecule `CCOC(=O)c1sc(C)nc1OC(=S)N(C)C` gave a melting point of 87 to 90 °C.

The molecule `C=CC12COc3cc(Cl)ccc3C1=NN(C(=O)Nc1ccc(C(F)(F)F)cc1)C2` (centres undefined) yielded a melting point of 157 to 161 °C.

On to `C=CCc1cc(CCC(=O)OCC)ccc1C#CC1(O)CN2CCC1CC2` (centres undefined), for which the melting point was 55 to 56 °C.

`CC(C)[C@H]1[C@@H](O)CC(=O)N1c1ccc(C#N)c(Cl)c1` showed a melting point of 100 to 102 °C.

Regarding `CC#CCOc1ccc(S(=O)(=O)N2CCOCC2C(=O)NO)cc1` (centres undefined), the melting point is 68 to 72 °C.

Take `NC(=O)Nc1ccccc1CCc1n[nH]c2c1c(=O)n(-c1ccccc1)c1ncccc21`: the melting point was 300 to 305 °C.

`CCc1c2s[nH]c(=O)c2c(=O)n2ccc(N3CCC(N(C)C)C3)cc12` (centres undefined) displayed a melting point of 217 to 219 °C.

For `CC1=CC(=O)C(=NNc2ccc(C#N)cc2)C(=O)O1`, the melting point stood at 300 °C.

Turning to `O=C(NCc1cccnc1)c1ccnc(N2CCN(Cc3ccc(F)cc3)C2=O)c1`, the melting point lay in the range of 153 to 155 °C.

Regarding `COc1ccc(C2Sc3ccc(OC)cc3N(CCN(C)C)C(=O)C2O)cc1` (centres undefined), the melting point lay in the range of 127 to 129 °C.

Regarding `CC(C)(O)C1Cc2cc3ccc(=O)oc3cc2O1` (centres undefined), the melting point was 186 to 187 °C.

`CCCCCCCCOc1cc(N)c(OCOC)c(OC)c1`: the melting point was 56 to 57 °C.

In turn, `CSc1ncc(Cc2ccncc2)c(=O)[nH]1` had a melting point of 179 to 182 °C.

The molecule `CCCCn1c(-c2ccccc2)nc(Cl)c1CC(=O)O` showed a melting point of 189 to 190 °C.

With `CC1CC2C3CCC4=CC(=O)C=CC4(C)C3=CCC2(C)C1C(=O)CN1CCN(c2cc(NC34CC5CC(CC(C5)C3)C4)nc(NC34CC5CC(CC(C5)C3)C4)n2)CC1` (centres undefined), the melting point was in the range of 210 to 220 °C.

`CCCCn1c(=O)c2nc(-c3ccc(/C=C/C(=O)O)cc3)[nH]c2n(CCCC)c1=O` came in with a melting point of 350 to 355 °C.

As for `Clc1ncn(CCOc2ccc(Oc3ccccc3)cc2)c1Cl`, the melting point lay in the range of 89 to 91 °C.

For `CC(=O)Nc1ncc(SCC(=O)O)s1`, the melting point amounted to 210 °C.

In turn, `CC(C)(C)OC(=O)N1CCc2cc([N+](=O)[O-])ccc2C1` yielded a melting point of 138 to 141 °C.

Turning to `Nc1nc(F)c(C(F)(F)F)cc1Cl`, the melting point was 101 to 103 °C.

Take `COc1cc2c(Oc3ccc(Cl)cc3F)ncnc2cc1OCc1ccccc1`: the melting point is 179 to 180 °C.

`Cn1cnc(COc2nn3c(-c4ccccc4)nnc3cc2-c2cccs2)n1` registered a melting point of 237 to 239 °C.

Consider `O=C(C#Cc1ccc(Br)cc1)Nc1ccccc1`, for which the melting point was in the range of 159 to 160 °C.

The molecule `N#CCCNC(=O)C1=C(C(=O)Nc2ccc(Cl)cc2F)CCCC1` yielded a melting point of 160 to 161 °C.

Regarding `CC12CC(=O)C3C(CCC4CC(O)CCC43C)C1CCC2C(=O)CBr` (centres undefined), the melting point was 160 to 163 °C.

As for `Cc1cnc(NCCc2ccccn2)c(=O)n1NC(=O)CCc1cc(Cl)ccc1Cl`, the melting point fell in the range of 188 to 191 °C.

Molecule `CCCCOC(=O)CNC(=O)c1nc2ccc(OC)cc2cc1OCc1ccccc1` displayed a melting point of 90 to 92 °C.

For the molecule `CCN(Cc1ccccc1)c1nc(=O)c2cc(C(F)(F)F)cc([N+](=O)[O-])c2s1`, the melting point fell in the range of 94 to 97 °C.

`Cn1c2ccc(C(=O)c3ccccc3)cc2c2cc(C(=O)c3ccccc3)ccc21` registered a melting point of 222 °C.

In turn, `O=[N+]([O-])c1ccc(NCCF)nc1` gave a melting point of 126 to 127 °C.

`CN(C)CCN1Cc2cccc3cccc(c23)S1(=O)=O`: the melting point lay in the range of 97 to 98 °C.

On to `ICCc1ccc2c(c1)OCO2`, for which the melting point is 36 to 38 °C.

Consider `CC(C)(C)OC(=O)N1CC(O)C(N2CCC(Cc3ccc(Cl)cc3)CC2)C1` (centres undefined), for which the melting point fell in the range of 99 to 102 °C.

In turn, `Fc1ccc(Cn2c(NC3CCN(CCNc4ncccn4)CC3)nc3ccccc32)cc1` had a melting point of 168 °C.

With `CCc1nc2cc(COC)c(Cl)cc2n1-c1ccc(CCOC(=O)NS(=O)(=O)c2ccc(C)cc2)cc1`, the melting point is 174 °C.

Turning to `O=C(O)CCCOc1cccc(C2CCCCC2)c1`, the melting point was in the range of 83 to 84 °C.

Turning to `Cc1cn(C(C)(C(=O)N(C)C)c2ccccc2)nc1-c1ccccc1` (centres undefined), the melting point lay within 107 to 109 °C.

In the case of `CCC12CCC(=O)C=C1CCC2=O` (single isomer, unassigned; (+)), the melting point lay in the range of 56 to 58.5 °C.

For the molecule `CCCOc1ccc(OC)c(-c2csc(NC(=O)c3ccc(OCC(OCC)OCC)cc3)n2)c1`, the melting point was found to be 107 °C.

Molecule `COc1cc(C(=O)OCC2(N(C)C)CCSc3ccccc32)cc(OC)c1OC` (centres undefined) returned a melting point of 146 to 148 °C.

In turn, `CCn1nnnc1C(CO)=C(c1ccc(F)cc1)c1ccc(F)cc1` showed a melting point of 103 to 111 °C.

For the molecule `Cc1csc2nc3ccccc3c(=O)n12`, the melting point turned out to be 180 °C.

`Cc1c(Br)cccc1N1Cc2cc(C(C)(C)C)sc2C1=O`: the melting point lay within 185 to 186 °C.

As for `FC(F)(F)c1ccn(-c2cc(N3CCOCC3)nc3ccccc23)n1`, the melting point fell in the range of 118 to 120 °C.

As for `CCCCCCN(C)c1ccc(C=C2SC(=S)N(CC(=O)NS(=O)(=O)c3ccccc3)C2=O)cc1`, the melting point is 173 to 177 °C.

Consider `O=C1c2ccccc2C(=O)N1CC1CC1c1cccc2nscc12` (centres undefined), for which the melting point was 148 to 151 °C.

The molecule `O=C(NCCCN1CCCCC1)c1cccc(Nc2ncnc3[nH]cc(C(=O)c4ccccc4)c23)c1` came in with a melting point of more than 300 °C.

With `CC(c1oc2ccccc2c(=O)c1-c1cccc(F)c1)n1nc(-c2cnc(N)nc2)c2c(N)ncnc21` (centres undefined), the melting point lay in the range of 264 to 268 °C.

With `Nc1cc(N2CC(COc3ccccc3)OC2=O)ccn1` (centres undefined), the melting point lay in the range of 191 to 192 °C.

Turning to `NNc1ccc([N+](=O)[O-])cc1S(N)(=O)=O`, the melting point was in the range of 209 to 210 °C.

`COC(=O)Cn1nnnc1-c1c(Cl)c(Cl)cc2[nH]c(=O)c(=O)[nH]c12` showed a melting point of 281 to 283 °C.

Molecule `CC(=O)Nc1nc2cc3[nH]c(-c4ccncc4)nc3cc2[nH]1` yielded a melting point of more than 330 °C.

In turn, `COC(=O)C1=NNC(C)=C(C(=O)OC)C1c1ccc(OC)cc1` (centres undefined) registered a melting point of 154 °C.

`CCOC(=O)c1ccc(/C=C(\C)c2ccc3c(c2)C(C)(C)CCC3(C)C)cc1` returned a melting point of 90 to 91 °C.

`O=C(C=Cc1cncnc1)CCCCc1ccc2c(n1)NCCC2` gave a melting point of 101 to 102 °C.

For the molecule `COC(=O)CCC1=C(N)CCC1=O`, the melting point fell in the range of 223 to 224 °C.

Turning to `O=Cc1cc([N+](=O)[O-])ccc1-c1ccccc1`, the melting point worked out at 79.5 °C.

`Cc1cc(-c2ccccc2)c2ccccc2n1`: the melting point was in the range of 100 to 101 °C.

The molecule `COC(=O)c1cccc(-c2c(C)c(NC(=O)CC(C)(C)C)c(C)c3c2OCC3c2ccc(C(C)C)cc2)c1` (centres undefined) returned a melting point of 206 to 208 °C.

Take `NC1=NCC(COc2cccc(C(F)(F)F)c2)O1` (centres undefined): the melting point came out at 10 °C.

For the molecule `COC(=O)CC(=O)N1CCC(c2ccc(OC)c(OC3CCCC3)c2)CC1`, the melting point lay within 78 to 79 °C.

For `NS(=O)(=O)c1ccc2[nH]cc(CCN3C(=O)c4ccccc4C3=O)c2c1`, the melting point lay within 285 to 290 °C.

`O=S(=O)(c1ccc(-n2cccn2)cc1)N1CCC(CNCC(O)COc2ccc(O)cc2)CC1` (centres undefined) showed a melting point of 169 to 171 °C.

In turn, `CC(C)(C)c1cc(C=Cc2ccccc2NC(=O)N(Cc2ccccc2)Cc2ccccc2)cc(C(C)(C)C)c1O` had a melting point of 175 to 178 °C.

Molecule `OCC1OC(n2cnc3c(NCC(c4ccccc4)c4cccc(Cl)c4)ncnc32)C(O)C1O` (centres undefined) returned a melting point of 107 to 110 °C.

With `COC(=O)C(Cc1c[nH]c2ccccc12)NC1CCC(c2ccccc2)(N(C)C)CC1` (centres undefined), the melting point fell in the range of 60 to 65 °C.

Molecule `Cc1ccc(C)n1CCNC(N)=O` showed a melting point of 139 to 141 °C.

Take `OC1OC2CC3CC(C2)OC1O3` (centres undefined): the melting point was in the range of 185 to 194 °C.

As for `CC(C)(C)c1cccc2c1C(=O)NS2(=O)=O`, the melting point fell in the range of 185 to 187 °C.

`O=C(Nc1ccccc1)c1cccc(NC(=S)Nc2cc(Cl)cc(Cl)c2)c1`: the melting point lay in the range of 174 to 177 °C.

Regarding `Cn1c(=O)c(C#N)c(N2CCNCC2)c2cc(Cl)ccc21`, the melting point came to 223 °C.

The molecule `Cc1nc(N(C)c2cccnc2)sc1-c1ccnc(Nc2ccc(N3CCOCC3)cc2)n1` displayed a melting point of 194 to 195 °C.

In turn, `CC(C)c1oc(-c2ccccc2)c(-c2ccc(F)cc2)c1C=CC=O` had a melting point of 98 to 100 °C.

Turning to `Cc1cc(CCCCCCCOc2ccc(C3=NCCO3)cc2)on1`, the melting point was 89 to 90 °C.

Take `CC(C)(C)OC(=O)NCC(=O)Nc1ccc(Nc2cccc3c2C(=O)c2ccccc2C3=O)cc1`: the melting point stood at 171 °C.

The record behind these values is a melting point compilation (Tetko et al.; mined from patent text by program, amines drawn as free bases though some values may be those of a salt).
